Experimental data taken from patent US9993463B2, “Use of maleimide derivatives for preventing and treating cancer” (CENTOGENE AG, priority 2012, dated 2018).

Columns and labels:
[1] = test system: purified bovine brain tubulin; assay: Tubulin polymerisation turbidity assay; type: biochemical; details: 1 μM, 340 nm, 37° C.; for shape of OD curve over time / effect on tubulin polymerization: 60 min, FIG. 5C, untreated control sigmoid
Protocol: Purified bovine brain tubulin was used to measure tubulin-polymerisation by determining turbidity in tubulin samples incubated with compound of example 6 (PDA-66), paclitaxel or nocodazole (all 1 μM) and 0.6% DMSO in water as negative control. Optical density (OD) was measured after initiation of tubulin assembly at a wavelength of 340 nm continuously for 60 min in 1 min intervals at a temperature of 37° C. in a plate reader (Tecan, Mainz, Germany).

[2] = test system: human immortalized cells; assay: Mitotic arrest in G2/M phase of cell cycle; type: cell-based; details: after 16 h (highest amount), control 17.4±2.3%
Source text: As a measure the increase in cells with double DNA content was used, where at all points in time the amount of treated cells was higher in comparison to untreated cells.

[3] = test system: colon carcinoma cells (SW480); assay: Cell proliferation assay (CASY, current exclusion), SW480; type: cell-based; details: 72 h
Protocol: (§1) Human neural progenitor cells ReNcell VM (Millipore, Schwalbach, Germany) were cultured on laminin-coated culture-vessels. Culture medium consisted of DMEM/F12 supplemented with B27 media supplement, GlutaMax™, gentamycin and heparin sodium salt and growth factors EGF (epidermal growth factor) and bFGF (basic fibroblast growth factor). The human neuroblastoma cell line SH-SY5Y was obtained from the German Resource Centre for Biological Material DSMZ (Braunschweig, Germany). Cells were cultivated in DMEM, supplemented with 10% FBS, 1% Penicillin-Streptomycin, 4 mM L-Glutamine. The human T cell leukemia cell line Jurkat was obtained from the German Resource Centre for Biological Material DSMZ (Braunschweig, Germany). Cells were cultivated in RPMI 1640 medium, supplemented with 10% FBS, 1% Penicillin-Streptomycin. The murine melanoma cell line B16F10 was obtained from the American Type Culture Collection (ATCC, Manassas, USA), Cells were cultivated in DMEM/GM medium supplemented with 10% FBS, 1% Penicillin-Streptomycin. […]
(§2) Cell proliferation and vitality were measured with a CASY Model TT (Roche, Mannheim, Germany) by electrical current exclusion method. […]
(§3) In a further experiment further cancer cells were treated with compound of example 2.6 (PDA-66) with a concentration of 3 μM or 10 μM for 72 h and cell number was evaluated using the current exclusion method as described above.

[4] = test system: human T cell leukemia (Jurkat) cells; assay: Cell proliferation assay (CASY, current exclusion), Jurkat; type: cell-based; details: 72 h
Protocol: Human neural progenitor cells ReNcell VM (Millipore, Schwalbach, Germany) were cultured on laminin-coated culture-vessels. Culture medium consisted of DMEM/F12 supplemented with B27 media supplement, GlutaMax™, gentamycin and heparin sodium salt and growth factors EGF (epidermal growth factor) and bFGF (basic fibroblast growth factor). The human neuroblastoma cell line SH-SY5Y was obtained from the German Resource Centre for Biological Material DSMZ (Braunschweig, Germany). Cells were cultivated in DMEM, supplemented with 10% FBS, 1% Penicillin-Streptomycin, 4 mM L-Glutamine. The human T cell leukemia cell line Jurkat was obtained from the German Resource Centre for Biological Material DSMZ (Braunschweig, Germany). Cells were cultivated in RPMI 1640 medium, supplemented with 10% FBS, 1% Penicillin-Streptomycin. The murine melanoma cell line B16F10 was obtained from the American Type Culture Collection (ATCC, Manassas, USA), Cells were cultivated in DMEM/GM medium supplemented with 10% FBS, 1% Penicillin-Streptomycin. The mammary gland/breast carcinoma cell line MCF-7 was obtained from American Type Culture Collection (ATCC, Manassas, USA) and cultivated according to standard proceedings in Eagle's Minimum Essential Medium (EMEM). The colon carcinoma cell line SW480 was obtained from American Type Culture Collection (ATCC, Manassas, USA) and cultivated according to standard proceedings in Leibovitz's L15 Medium. […]
as §2
(§4) 5.2 Furthermore cancer cells were treated with compound of example 2.6 (PDA-66) with a concentration of 3 μM for 72 h and cell number was evaluated using the current exclusion method as described above.
as §3

[5] = test system: human neuroblastoma cells (SH5Y5); assay: Cell proliferation assay (CASY, current exclusion), SH5Y5; type: cell-based; details: SH5Y5, 3 μM, 72 h, FIG. 2
Protocol: as §1, §2, §4

[6] = test system: liver carcinoma cells (HepG2); assay: Cell proliferation assay (CASY, current exclusion), HepG2; type: cell-based; details: 72 h
Protocol: as §1, §2, §3

[7] = test system: murine melanoma cells (B16F10); assay: Cell proliferation assay (CASY, current exclusion), B16F10; type: cell-based
Protocol: (§5) Human neural progenitor cells ReNcell VM (Millipore, Schwalbach, Germany) were cultured on laminin-coated culture-vessels. Culture medium consisted of DMEM/F12 supplemented with B27 media supplement, GlutaMax™, gentamycin and heparin sodium salt and growth factors EGF (epidermal growth factor) and bFGF (basic fibroblast growth factor). The human neuroblastoma cell line SH-SY5Y was obtained from the German Resource Centre for Biological Material DSMZ (Braunschweig, Germany). Cells were cultivated in DMEM, supplemented with 10% FBS, 1% Penicillin-Streptomycin, 4 mM L-Glutamine. The human T cell leukemia cell line Jurkat was obtained from the German Resource Centre for Biological Material DSMZ (Braunschweig, Germany). Cells were cultivated in RPMI 1640 medium, supplemented with 10% FBS, 1% Penicillin-Streptomycin. The murine melanoma cell line B16F10 was obtained from the American Type Culture Collection (ATCC, Manassas, USA), Cells were cultivated in DMEM/GM medium supplemented with 10% FBS, 1% Penicillin-Streptomycin. The mammary gland/breast carcinoma cell line MCF-7 was obtained from American Type Culture Collection (ATCC, Manassas, USA) and cultivated according to standard proceedings in Eagle's Minimum Essential Medium (EMEM). The colon carcinoma cell line SW480 was obtained from American Type Culture Collection (ATCC, Manassas, USA) and cultivated according to standard proceedings in Leibovitz's L15 Medium. The lung carcinoma cell line A549 was obtained from American Type Culture Collection (ATCC, Manassas, USA) and cultivated according to standard proceedings in F-12K Medium (Kaighn's Modification of Ham's F-12 Medium). The liver carcinoma cell line Hep G2 was obtained from American Type Culture Collection (ATCC, Manassas, USA) and cultivated according to standard proceedings in Eagle's Minimum Essential Medium (EMEM).
(§6) Cell proliferation and vitality were measured with a CASY Model TT (Roche, Mannheim, Germany) by electrical current exclusion method. Cells were seeded in defined numbers into 48-well-plates and proliferated for 24 h. Subsequently fresh medium was applied containing compounds or DMSO, in the following referred as control.
as §4, §3

[8] = test system: lung carcinoma cells (A 549); assay: Cell proliferation assay (CASY, current exclusion), A549; type: cell-based; details: for proliferation relative to control: 72 h
Protocol: as §5, with “The liver carcinoma cell line Hep G2 was obtained from American Type Culture Collection (ATCC, Manassas, USA) and cultivated according to standard proceedings in Eagle's Minimum Essential Medium (EMEM).” left out
as §2, §3

[9] = test system: bovine neuronal tubulin; assay: VEC-DIC microscopy of tubulin polymerization; type: biochemical; details: tubulin 2 mg/ml, 37° C., 1 h, FIG. 5A, B
Protocol: In order to evaluate interference with tubulin polymerisation bovine neuronal tubulin was used, diluted in BRB80 buffer (80 mM PIPES, pH 6.8; MgCl2 1 mM; EGTA 1 mM) at a concentration of 2 mg/ml. After addition of 0.5 mM GTP and 10% DMSO, initiating tubulin polymerisation, the solution samples were incubated at 37° C. in the presence of compound of example 6 (PDA-66). After 1 h the samples were analysed by using video enhanced contrast differential interference contrast (VEC-DIC) microscopy.

[10] = test system: apoptotic cells (AnnexinV/PI); assay: AnnexinV/PI apoptosis detection (FACS); type: cell-based; details: FIG. 3
Protocol: To determine the amount of apoptotic and necrotic cells a FITC AnnexinV Apoptosis Detection Kit I was used. For FACS analysis, cells were trypsinised and centrifuged at 100×g at RT for 5 min and washed with PBS without Ca2^+ and Mg^2+. Annexin V and propidium iodide (PI) were added accordingly to the manufacture's instructions. After 15 min incubation at room temperature on a shaker in the dark, the measurement was done by using FACSCalibur (Becton Dickinson, San Jose, USA) in combination with Cell Quest Pro software.

[11] = test system: MCF-7 cells (mammary gland/breast carcinoma); assay: Cell proliferation assay (CASY, current exclusion), MCF-7; type: cell-based; details: mamma carcinoma cells (printed MCF-1), 72 h
Protocol: as §1, §2, §3

[12] = test system: human neuronal progenitor cells (hNPCs, ReNcell VM); assay: Cell proliferation and vitality assay (CASY, current exclusion), hNPCs; type: cell-based; details: for proliferation relative to control: 72 h
Protocol: as §5, §6
5.1 Cytotoxic effects were evaluated using human fetal cells immortalized by transfection with the oncogen v-myc (Donato et al., Differential development of neuronal physiological responsiveness in two human neural stem cell lines. BMC Neurosci.; 8, 2007), also referred to herein as human neuronal progenitor cells, hNPCs, or ReNcell VM, providing a sensitive screening system and cancer cells, namely SH5Y5, Jurkat and B16F10 cells. Cytotoxic effects were measured by comparison of cells numbers of DMSO treated cells (control) and cell numbers of cells treated with compound of above mentioned example 2.6 (PDA66). Cell proliferation and vitality was measured with a CASY Model TT (Roche, Mannheim, Germany) by electrical current exclusion method. Cells were seeded in defined numbers into 48-well-plates and proliferated for 24 h: Subsequently fresh medium was applied containing compound of example 6 (3 μM) (PDA-66) or DMSO, in the following referred as control. Cell number and cell vitality was measured after 72 h.

SMILES: COC(=O)Nc1nc2ccc(C(=O)c3cccs3)cc2[nH]1 [nocodazole]
- maximal OD after 60 min [1]: 1.01 rel. units
- shape of OD curve over time / effect on tubulin polymerization [1]: nearly linear curve

SMILES: CC(=O)O[C@H]1C(=O)[C@@]2(C)[C@H]([C@H](OC(=O)c3ccccc3)[C@]3(O)C[C@H](OC(=O)[C@H](O)[C@@H](NC(=O)c4ccccc4)c4ccccc4)C(C)=C1C3(C)C)[C@]1(OC(C)=O)CO[C@@H]1C[C@@H]2O [paclitaxel]
- maximal OD after 60 min [1]: 1.18 rel. units
- shape of OD curve over time / effect on tubulin polymerization [1]: comparable shape but with a steeper slope

SMILES: CC(=O)c1ccc(C2=C(c3c(C)[nH]c4ccccc34)C(=O)N(C)C2=O)cc1 [PDA-66, 3-(4-Acetylphenyl)-1-methyl-4-(2-methyl-1H-indol-3-yl)-1H-pyrrole-2,5-dione]
- amount of cells in G2/M phase of cell cycle [2]: 68.9±10.3%
- proliferation relative to control ([3]; SW480, 3 μM): 61.3±0.6%
- proliferation relative to control ([3]; SW480, 10 μM): 56.6±6.6%
- proliferation relative to control ([4]; 3 μM): 18.2±2.2%
- cell numbers versus control ([4]; 3 μM, FIG. 2): reduced or attenuated significantly
- proliferation relative to control ([4]; 10 μM): 31.9±5.9%
- cell numbers versus control [5]: reduced or attenuated significantly
- proliferation relative to control ([6]; HepG2, 3 μM): 74.8±6.3%
- proliferation relative to control ([6]; HepG2, 10 μM): 47.2±3.8%
- proliferation relative to control ([7]; B16F10, 3 μM, 72 h): 7.2±1.3%
- cell numbers versus control ([7]; B16F10, 3 μM, 72 h, FIG. 2): reduced or attenuated significantly
- proliferation relative to control ([7]; B16F10, at 10 (unit not given), 72 h): 8.3±2.6%
- IC50 ([7]; Mus musculus, B16-F10, B16F10 cells): 1070 nM
- proliferation relative to control ([8]; A 549, 3 μM): 57.1±9.2%
- proliferation relative to control ([8]; A 549, 10 μM): 65.7±8.0%
- IC50 ([8]; Homo sapiens, A549 cells): 8980 nM
- maximal OD after 60 min [1]: 1.04 rel. units
- shape of OD curve over time / effect on tubulin polymerization [1]: destabilized tubulin in a way comparable to nocodazole
- microtubule (MT) polymerization by VEC-DIC microscopy [9]: hindered the MT-polymerization
- apoptotic cells (AnnexinV+/PI− and AnnexinV+/PI+) [10]: increase of apoptotic cells
- proliferation relative to control ([11]; 3 μM): 43.0±2.8%
- proliferation relative to control ([11]; 10 μM): 38.3±11.8%
- proliferation relative to control ([12]; 3 μM): 3.6±1.2%
- number of vital cells (vitality) versus control ([12]; 3 μM, FIG. 1 right panel): significantly lower
- proliferation of immortalized cells (cell number) versus control ([12]; 3 μM, up to 72 h, FIG. 1 left panel): no proliferation
- proliferation relative to control ([12]; 10 μM): 0.9±0.2%
- effect of concentration on proliferation of immortalized cells ([12]; FIG. 6): dose-dependent effect
- IC50 ([12]; Homo sapiens, ReNcell VM): 532 nM
